Two compounds from ChEMBL document CHEMBL1150067, “Anti-tumor-promoting activities of afromosin and soyasaponin I isolated from Wistaria brachybotrys” (1992) can be followed below.

Molecules are shown by their SMILES.

Holding throughout (assay type): functional
The species entered for assay [1] is Mus musculus. As to the kind of experiment: Inhibition of 4NQO-induced carcinogenesis in mouse assessed as total number of tumors at 1.25 mg after 25 weeks by two stage carcinogenesis test.
Assay [2] is filed under the species Mus musculus. Put plainly: Inhibition of 4NQO-induced carcinogenesis in mouse assessed as number of tumors per mouse at 1.25 mg after 25 weeks by two stage carcinogenesis test.
The species named for assay [3] is Mus musculus. As to the kind of experiment: Inhibition of 4NQO-induced carcinogenesis in mouse assessed as reduction of mouse with tumor at 1.25 mg after 25 weeks by two stage carcinogenesis test. On the set-up: scale not given: the % may be the effect or the level left.
For assay [4], the system named is Mus musculus. Put plainly: Inhibition of DMBA-induced/TPA-promoted carcinogenesis in mouse assessed as number of skin papillomas per mouse at 85 nmol administered twice weekly after 1 week of initiation measured after 20 weeks by two stage carcinogenesis test. On the set-up: scale not given: the % may be the effect or the level left.

Consider `COc1ccc(-c2coc3cc(O)c(OC)cc3c2=O)cc1` [CASTANIN], for which the Activity in the assay listed under Mus musculus [1] stood at 14; in the assay filed under Mus musculus [2], 0.93; in the assay filed under Mus musculus [3] it was 60%; in the assay on Mus musculus [4], 40%.
For the compound `C[C@@H]1O[C@@H](O[C@H]2[C@H](O[C@H]3[C@H](O[C@H]4CC[C@@]5(C)[C@@H](CC[C@]6(C)[C@@H]5CC=C5[C@@H]7CC(C)(C)C[C@@H](O)[C@]7(C)CC[C@]56C)[C@@]4(C)CO)O[C@H](C(=O)O)[C@@H](O)[C@@H]3O)O[C@H](CO)[C@H](O)[C@@H]2O)[C@H](O)[C@H](O)[C@H]1O` [SOYASAPONIN I], the Activity with Mus musculus [4] is recorded as 40%.
